Data published in patent US7256007B2, “Methods of regulating cytokine signalling” (The Walter and Eliza Hall Institute of Medical Research, priority 2000, dated 2007).
Square brackets hold non-standard residues; d marks the D form. Ends that are not written are not given here. Peptide text beside a SMILES is read from it. pY = N[C@@H](Cc1ccc(OP(=O)(O)O)cc1)C(=O)O

T1: SOCS-3 (Mus musculus, UniProt O35718)
T1 construct: hexahistidine (pET15b) (N); made in house; host or cells: E. coli BL21 DE3 pLysS
T1 sequence (O35718 1-225): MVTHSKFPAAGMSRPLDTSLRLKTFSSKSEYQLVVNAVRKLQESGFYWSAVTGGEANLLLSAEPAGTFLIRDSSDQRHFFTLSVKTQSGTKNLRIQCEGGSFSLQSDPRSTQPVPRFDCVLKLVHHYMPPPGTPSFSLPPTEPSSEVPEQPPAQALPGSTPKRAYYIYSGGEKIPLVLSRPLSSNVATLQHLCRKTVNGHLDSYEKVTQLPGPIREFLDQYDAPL

T2: SOCS-3 (recombinant, His-tagged) (mouse, UniProt O35718)
T2 chain: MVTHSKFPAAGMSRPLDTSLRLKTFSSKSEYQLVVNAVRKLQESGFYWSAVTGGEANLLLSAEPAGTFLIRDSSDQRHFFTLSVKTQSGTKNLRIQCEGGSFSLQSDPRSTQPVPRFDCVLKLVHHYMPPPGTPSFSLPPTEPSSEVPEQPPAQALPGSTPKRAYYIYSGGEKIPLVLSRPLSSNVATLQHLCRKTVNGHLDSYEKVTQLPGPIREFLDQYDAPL


What was measured:
[1] = molecular target: T1, SOCS-3; test: Competitive binding assay on the Biosensor: soluble peptide displaces SOCS-3 from immobilized gp130 (750-764) phosphopeptide; design: species or system murine; conditions: for IC50 analogue/IC50 wild-type: relative to gp130 (750-764) parent phosphopeptide; for IC50: IC50, Table 2, gp130(750-764) phosphopeptide and analogues
Procedure: Purified protein was refolded by dialysis into PBS containing 2 mM DTT, 2 mM EDTA and 0.02% v/v Tween 20. Refolded material was purified to homogeneity by ion exchange chromatography on a Mono S column (Pharmacia).
Samples were left overnight at 4° C. prior to analysis on the Biosensor so that the rate of protein loss due to absorption was minimal through the course of the experiment.
The inventors also used this competition assay to reassess the potential solution binding of the phosphopeptides listed in FIG. 1A.

[2] = molecular target: T2, SOCS-3 (recombinant, His-tagged); test: competition, SPR

| IC50 [2] [nM] | Molecule | IC50 analogue/IC50 wild-type [1] | IC50 [1] [nM] |
| --- | --- | --- | --- |
| 1100 | STASTVE[pY]STVAHSG-NH2 (N-terminus assumed; SMILES CC(C)[C@H](NC(=O)[C@@H](NC(=O)[C@H](CO)NC(=O)[C@H](Cc1ccc(OP(=O)(O)O)cc1)NC(=O)[C@H](CCC(=O)O)NC(=O)[C@@H](NC(=O)[C@@H](NC(=O)[C@H](CO)NC(=O)[C@H](C)NC(=O)[C@@H](NC(=O)[C@@H](N)CO)[C@@H](C)O)[C@@H](C)O)C(C)C)[C@@H](C)O)C(=O)N[C@@H](C)C(=O)N[C@@H](Cc1c[nH]cn1)C(=O)N[C@@H](CO)C(=O)NCC(N)=O) [gp130 phosphopeptide V12A] |  |  |
| 970 | Ac-E[pY]STVVHSG-NH2 (SMILES CC(=O)N[C@@H](CCC(=O)O)C(=O)N[C@@H](Cc1ccc(OP(=O)(O)O)cc1)C(=O)N[C@@H](CO)C(=O)N[C@H](C(=O)N[C@H](C(=O)N[C@H](C(=O)N[C@@H](Cc1c[nH]cn1)C(=O)N[C@@H](CO)C(=O)NCC(N)=O)C(C)C)C(C)C)[C@@H](C)O) [AcE(pY)STVVHSG] |  |  |
| 120 | Ac-TVE[pY]STVVHSG-NH2 (SMILES CC(=O)N[C@H](C(=O)N[C@H](C(=O)N[C@@H](CCC(=O)O)C(=O)N[C@@H](Cc1ccc(OP(=O)(O)O)cc1)C(=O)N[C@@H](CO)C(=O)N[C@H](C(=O)N[C@H](C(=O)N[C@H](C(=O)N[C@@H](Cc1c[nH]cn1)C(=O)N[C@@H](CO)C(=O)NCC(N)=O)C(C)C)C(C)C)[C@@H](C)O)C(C)C)[C@@H](C)O) [AcTVE(pY)STVVHSG] |  |  |

More lines, now with the values behind:

| Molecule | IC50 [2] [nM] | IC50 analogue/IC50 wild-type [1] | IC50 [1] [nM] |
| --- | --- | --- | --- |
| CC(=O)N[C@@H](Cc1ccc(OP(=O)(O)O)cc1)C(=O)N[C@@H](CO)C(=O)N[C@H](C(=O)N[C@H](C(=O)N[C@H](C(=O)N[C@@H](Cc1c[nH]cn1)C(=O)N[C@@H](CO)C(=O)NCC(N)=O)C(C)C)C(C)C)[C@@H](C)O [Ac(pY)STVVHSG] (Ac-[pY]STVVHSG-NH2) |  | 87 |  |
| CC(=O)N[C@@H](C)C(=O)N[C@@H](CCC(=O)O)C(=O)N[C@@H](Cc1ccc(OP(=O)(O)O)cc1)C(=O)N[C@@H](CO)C(=O)N[C@H](C(=O)N[C@H](C(=O)N[C@H](C(=O)N[C@@H](Cc1c[nH]cn1)C(=O)N[C@@H](CO)C(=O)NCC(N)=O)C(C)C)C(C)C)[C@@H](C)O [AcAE(pY)STVVHSG] (Ac-AE[pY]STVVHSG-NH2) |  | 5.3 |  |
| CC(=O)N[C@@H](CCC(=O)O)C(=O)N[C@@H](Cc1ccc(OP(=O)(O)O)cc1)C(=O)N[C@@H](CO)C(=O)N[C@H](C(=O)N[C@H](C(=O)N[C@H](C(=O)N[C@@H](Cc1c[nH]cn1)C(=O)N[C@@H](CO)C(=O)NCC(N)=O)C(C)C)C(C)C)[C@@H](C)O [AcE(pY)STVVHSG] (Ac-E[pY]STVVHSG-NH2) |  | 8.8 |  |
| CC(=O)N[C@H](C(=O)N[C@H](C(=O)N[C@@H](CCC(=O)O)C(=O)N[C@@H](Cc1ccc(OP(=O)(O)O)cc1)C(=O)N[C@@H](CO)C(=O)N[C@H](C(=O)N[C@H](C(=O)N[C@H](C(=O)N[C@@H](Cc1c[nH]cn1)C(=O)N[C@@H](CO)C(=O)NCC(N)=O)C(C)C)C(C)C)[C@@H](C)O)C(C)C)[C@@H](C)O [AcTVE(pY)STVVHSG] |  | 1.1 |  |
| CC(=O)N[C@H](C(=O)N[C@@H](C)C(=O)N[C@@H](Cc1ccc(OP(=O)(O)O)cc1)C(=O)N[C@@H](CO)C(=O)N[C@H](C(=O)N[C@H](C(=O)N[C@H](C(=O)N[C@@H](Cc1c[nH]cn1)C(=O)N[C@@H](CO)C(=O)NCC(N)=O)C(C)C)C(C)C)[C@@H](C)O)C(C)C [AcVA(pY)STVVHSG] (Ac-VA[pY]STVVHSG-NH2) |  | 5.0 |  |
| CC(C)[C@H](NC(=O)[C@@H](NC(=O)[C@@H](NC(=O)[C@H](C)NC(=O)[C@H](Cc1ccc(OP(=O)(O)O)cc1)NC(=O)[C@H](CCC(=O)O)NC(=O)[C@@H](NC(=O)[C@@H](NC(=O)[C@H](CO)NC(=O)[C@H](C)NC(=O)[C@@H](NC(=O)[C@@H](N)CO)[C@@H](C)O)[C@@H](C)O)C(C)C)[C@@H](C)O)C(C)C)C(=O)N[C@@H](Cc1c[nH]cn1)C(=O)N[C@@H](CO)C(=O)NCC(N)=O [STASTVE(pY)ATVVHSG] (H-STASTVE[pY]ATVVHSG-NH2; N-terminus assumed) |  | 0.65 |  |
| CC(C)[C@H](NC(=O)[C@H](C)NC(=O)[C@@H](NC(=O)[C@H](CO)NC(=O)[C@H](Cc1ccc(OP(=O)(O)O)cc1)NC(=O)[C@H](CCC(=O)O)NC(=O)[C@@H](NC(=O)[C@@H](NC(=O)[C@H](CO)NC(=O)[C@H](C)NC(=O)[C@@H](NC(=O)[C@@H](N)CO)[C@@H](C)O)[C@@H](C)O)C(C)C)[C@@H](C)O)C(=O)N[C@@H](Cc1c[nH]cn1)C(=O)N[C@@H](CO)C(=O)NCC(N)=O [STASTVE(pY)STAVHSG] (H-STASTVE[pY]STAVHSG-NH2; N-terminus assumed) |  | 31 |  |
| CC(C)[C@H](NC(=O)[C@@H](NC(=O)[C@H](CO)NC(=O)[C@H](Cc1ccc(OP(=O)(O)O)cc1)NC(=O)[C@H](CCC(=O)O)NC(=O)[C@@H](NC(=O)[C@@H](NC(=O)[C@H](CO)NC(=O)[C@H](C)NC(=O)[C@@H](NC(=O)[C@@H](N)CO)[C@@H](C)O)[C@@H](C)O)C(C)C)[C@@H](C)O)C(=O)N[C@@H](C)C(=O)N[C@@H](Cc1c[nH]cn1)C(=O)N[C@@H](CO)C(=O)NCC(N)=O [STASTVE(pY)STVAHSG] (H-STASTVE[pY]STVAHSG-NH2; N-terminus assumed) |  | 10 | 1100 |
| CC(C)[C@H](NC(=O)[C@@H](NC(=O)[C@@H](NC(=O)[C@H](CO)NC(=O)[C@H](Cc1ccc(OP(=O)(O)O)cc1)NC(=O)[C@H](CCC(=O)O)NC(=O)[C@@H](NC(=O)[C@@H](NC(=O)[C@H](CO)NC(=O)[C@H](C)NC(=O)[C@@H](NC(=O)[C@@H](N)CO)[C@@H](C)O)[C@@H](C)O)C(C)C)[C@@H](C)O)C(C)C)C(=O)N[C@@H](C)C(=O)N[C@@H](CO)C(=O)NCC(N)=O [STASTVE(pY)STVVASG] (H-STASTVE[pY]STVVASG-NH2; N-terminus assumed) |  | 7.0 |  |
| CC(C)[C@H](NC(=O)[C@@H](NC(=O)[C@@H](NC(=O)[C@H](CO)NC(=O)[C@H](Cc1ccc(OP(=O)(O)O)cc1)NC(=O)[C@H](CCC(=O)O)NC(=O)[C@@H](NC(=O)[C@@H](NC(=O)[C@H](CO)NC(=O)[C@H](C)NC(=O)[C@@H](NC(=O)[C@@H](N)CO)[C@@H](C)O)[C@@H](C)O)C(C)C)[C@@H](C)O)C(C)C)C(=O)N[C@@H](Cc1c[nH]cn1)C(=O)N[C@@H](CO)C(N)=O [STASTVE(pY)STVVHS] |  | 0.55 |  |
| CC(C)[C@H](NC(=O)[C@@H](NC(=O)[C@@H](NC(=O)[C@H](CO)NC(=O)[C@H](Cc1ccc(OP(=O)(O)O)cc1)NC(=O)[C@H](CCC(=O)O)NC(=O)[C@@H](NC(=O)[C@@H](NC(=O)[C@H](CO)NC(=O)[C@H](C)NC(=O)[C@@H](NC(=O)[C@@H](N)CO)[C@@H](C)O)[C@@H](C)O)C(C)C)[C@@H](C)O)C(C)C)C(=O)N[C@@H](Cc1c[nH]cn1)C(N)=O [STASTVE(pY)STVVH] (H-STASTVE[pY]STVVH-NH2; N-terminus assumed) |  | 0.70 |  |
| CC(C)[C@H](NC(=O)[C@@H](NC(=O)[C@@H](NC(=O)[C@H](CO)NC(=O)[C@H](Cc1ccc(OP(=O)(O)O)cc1)NC(=O)[C@H](CCC(=O)O)NC(=O)[C@@H](NC(=O)[C@@H](NC(=O)[C@H](CO)NC(=O)[C@H](C)NC(=O)[C@@H](NC(=O)[C@@H](N)CO)[C@@H](C)O)[C@@H](C)O)C(C)C)[C@@H](C)O)C(C)C)C(N)=O [STASTVE(pY)STVV] (H-STASTVE[pY]STVV-NH2; N-terminus assumed) |  | 10 | 1100 |
